In ChEMBL document CHEMBL1681640, “Serendipitous discovery of a new class of agonists for the melanocortin 1 and 4 receptors and a new class of cyclophanes” (Bioorg Med Chem Lett, 2011):
Calls of active or inactive are those of the source. The calls are words filed in the database; no cut-off is given here.

Assays:
Rattus norvegicus = assay: Reduction in food intake in Sprague-Dawley rat at 0.1 to 1 mg/kg, ip for first 3 hrs; type: functional, organism-based
Melanocortin receptor 5 [1] = target: T1, Melanocortin receptor 5 (Homo sapiens, UniProt P33032); assay: Agonist activity at human MC5 receptor expressed in BHK cells assessed as stimulation of agonist-induced cAMP accumulation; type: functional, cell-based
T1 sequence (P33032 whole entry): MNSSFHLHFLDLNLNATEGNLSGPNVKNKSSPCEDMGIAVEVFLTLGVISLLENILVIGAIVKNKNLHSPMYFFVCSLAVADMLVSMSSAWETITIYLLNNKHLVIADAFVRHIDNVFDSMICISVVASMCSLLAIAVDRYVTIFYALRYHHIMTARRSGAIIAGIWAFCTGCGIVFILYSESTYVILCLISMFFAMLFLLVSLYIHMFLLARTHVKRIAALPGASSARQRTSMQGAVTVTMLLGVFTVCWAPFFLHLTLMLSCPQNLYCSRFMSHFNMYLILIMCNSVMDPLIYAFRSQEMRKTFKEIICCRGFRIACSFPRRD

Melanocortin receptor 4 [2] = target: T2, Melanocortin receptor 4 (Homo sapiens, UniProt P32245); assay: Agonist activity at human MC4 receptor expressed in BHK cells assessed as stimulation of agonist-induced cAMP accumulation; type: functional, cell-based
Target sequence in this assay (P32245 whole entry): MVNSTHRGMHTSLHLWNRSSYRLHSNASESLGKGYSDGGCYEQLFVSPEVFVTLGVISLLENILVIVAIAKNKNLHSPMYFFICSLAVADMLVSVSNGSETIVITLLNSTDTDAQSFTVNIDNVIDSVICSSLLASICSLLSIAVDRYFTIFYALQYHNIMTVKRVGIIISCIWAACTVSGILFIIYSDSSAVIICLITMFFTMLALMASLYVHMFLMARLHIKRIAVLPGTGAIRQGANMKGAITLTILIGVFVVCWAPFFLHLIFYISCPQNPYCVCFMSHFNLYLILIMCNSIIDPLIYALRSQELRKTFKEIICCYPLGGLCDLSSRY

Melanocortin receptor 4 [3] = target: T2, Melanocortin receptor 4; assay: Displacement of [125I]NDP-alpha-MSH from human MC4 receptor expressed in BHK cells; type: cell-based
Target sequence in this assay (P32245 whole entry): as above

Melanocortin receptor 5 [4] = target: T1, Melanocortin receptor 5; assay: Displacement of [125I]NDP-alpha-MSH from human MC5 receptor expressed in BHK cells; type: cell-based
Melanocortin receptor 3 [5] = target: T3, Melanocortin receptor 3 (Homo sapiens, UniProt P41968); assay: Displacement of [125I]NDP-alpha-MSH from human MC3 receptor expressed in BHK cells; type: cell-based
T3 sequence (P41968 whole entry): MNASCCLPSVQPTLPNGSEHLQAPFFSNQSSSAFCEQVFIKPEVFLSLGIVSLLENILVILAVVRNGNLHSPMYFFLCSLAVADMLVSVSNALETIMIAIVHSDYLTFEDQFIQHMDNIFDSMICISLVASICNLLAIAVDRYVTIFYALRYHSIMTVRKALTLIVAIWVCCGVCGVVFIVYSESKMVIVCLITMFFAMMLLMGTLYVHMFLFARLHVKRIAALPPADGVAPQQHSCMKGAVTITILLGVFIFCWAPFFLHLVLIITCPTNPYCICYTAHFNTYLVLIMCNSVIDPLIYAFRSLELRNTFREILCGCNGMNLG

[6] = target: T4, Melanocyte-stimulating hormone receptor (Homo sapiens, UniProt Q01726); assay: Agonist activity at human MC1 receptor expressed in BHK cells assessed as stimulation of agonist-induced cAMP accumulation; type: functional, cell-based
Target sequence in this assay (Q01726 whole entry): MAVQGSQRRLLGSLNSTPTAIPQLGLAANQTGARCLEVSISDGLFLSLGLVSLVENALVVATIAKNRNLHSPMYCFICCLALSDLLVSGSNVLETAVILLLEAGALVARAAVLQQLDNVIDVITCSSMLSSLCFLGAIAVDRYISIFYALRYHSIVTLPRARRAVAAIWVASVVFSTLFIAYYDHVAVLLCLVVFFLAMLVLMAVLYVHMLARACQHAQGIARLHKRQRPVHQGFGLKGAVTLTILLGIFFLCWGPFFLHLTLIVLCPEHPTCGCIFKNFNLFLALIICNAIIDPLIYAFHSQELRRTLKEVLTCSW

[7] = target: T4, Melanocyte-stimulating hormone receptor; assay: Agonist activity at human MC1 receptor expressed in BHK cells assessed as stimulation of agonist-induced cAMP accumulation relative to agonist; type: functional, cell-based
Target sequence in this assay (Q01726 whole entry, looked up): as the sequence (Q01726 whole entry) above

Melanocortin receptor 3 [8] = target: T3, Melanocortin receptor 3; assay: Agonist activity at human MC3 receptor expressed in BHK cells assessed as stimulation of agonist-induced cAMP accumulation; type: functional, cell-based
[9] = target: T4, Melanocyte-stimulating hormone receptor; assay: Displacement of [125I]NDP-alpha-MSH from human MC1 receptor expressed in BHK cells; type: cell-based
Target sequence in this assay (Q01726 whole entry): as above

Melanocortin receptor 4 [10] = target: T2, Melanocortin receptor 4; assay: Inhibition of human MC4 receptor expressed in BHK cells in presence of SHU9119 receptor antagonist
Target sequence in this assay (P32245 whole entry, looked up): as the sequence (P32245 whole entry) above

Melanocortin receptor 4 [11] = target: T2, Melanocortin receptor 4; assay: Agonist activity at human MC4 receptor expressed in BHK cells assessed as stimulation of agonist-induced cAMP accumulation relative to agonist; type: functional, cell-based
Target sequence in this assay (P32245 whole entry): as above

| Compound | Activity (Rattus norvegicus) | EC50 (Melanocortin receptor 5 [1]) [nM] | EC50 (Melanocortin receptor 4 [2]) [nM] | Ki (Melanocortin receptor 4 [3]) [nM] | Ki (Melanocortin receptor 5 [4]) [nM] | Ki (Melanocortin receptor 3 [5]) [nM] | EC50 [6] [nM] | Emax [7] [%] | EC50 (Melanocortin receptor 3 [8]) [nM] | Ki [9] [nM] | inhibition (Melanocortin receptor 4 [10]) | Emax (Melanocortin receptor 4 [11]) [%] |
| --- | --- | --- | --- | --- | --- | --- | --- | --- | --- | --- | --- | --- |
| COCC(=O)N[C@H]1Cc2ccc(OC)c(c2)Cc2ccc(cc2)Oc2cccc(c2)CN(CCCN2CCN(CCCN)CC2)C1=O | Active | > 10000 | 466 | 392 | 388 | 1180 | 16 | 83 | > 10000 | 116 | Active | 61 |
| COCC(=O)N[C@H]1Cc2cc3c(c(c2)Cc2ccc(cc2)Oc2cccc(c2)CN(CCCN2CCN(CCCN)CC2)C1=O)OCOC3 |  | > 10000 | 697 | 403 | 1530 | 4530 | 12 | 85 | > 10000 | 328 | Active | 98 |
